Values of other authors as cited in patent publication US5665721A, “Heterocyclic substituted cyclopentane compounds” (Abbott Laboratories, priority 1995, dated 1997).

Test system: adenosine kinase
Conditions: literature; cited from earlier work

| SMILES | reported to inhibit adenosine kinase (in words) |
| --- | --- |
| C[C@H]1O[C@@H](n2cc(I)c3c(N)ncnc32)[C@H](O)[C@@H]1O [5'-deoxy-5-iodotubercidin] | most potent |
| Nc1ncnc2c1c(I)cn2[C@@H]1O[C@H](CO)[C@@H](O)[C@H]1O [5-iodotubercidin] | most potent |
